Results on 13 compounds are retold here after PubChem BioAssay (NCI).

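Compound exposure: 48 hours, 5 concentrations, 96-well plates. At the TGI there is no net growth.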 Some results are limits rather than exact numbers.

A word on the TGI: it is the concentration giving total growth inhibition. A higher TGI goes with lower sensitivity of the cells.

Common to all, as to assay: DTP human tumour cell line panel, 48 h
The subject of assay [1] is T-47D breast.
Assay [2] deals with A498 renal.
Assay [3] has as its system MDA-MB-435.
In assay [4] the test system is U251 CNS.
Assay [5] relates to DU-145 prostate.
Assay [6] deals with NCI-H522 lung.
Assay [7] deals with MOLT-4 leukemia.
Assay [8] deals with MDA-N.
Assay [9] relates to SNB-75 CNS.
Assay [10] has as its system EKVX NSCLC.
The subject of assay [11] is SK-MEL-2 melanoma.

`CN[C@@H]1[C@H](O)[C@H](NC)[C@H]2O[C@@]3(O)C(=O)C[C@@H](C)O[C@H]3O[C@@H]2[C@H]1O`: the TGI in [1], in [2], in [3], in assay [4], in assay [5] and in assay [6] was above 100 µM in each case. Also, the TGI in assay [7], in assay [8], in [9] and in [10] was above 100 µM each time.

As for `Nc1nc(SCCC/C=C/B(O)O)nc2c1ncn2C1OC(CO)C(O)C1O` (stereo not given), the TGI in [2], in assay [4], in assay [11], in assay [6], in assay [7] and in [9] was above 243 µM throughout. For the same compound, in assay [10], the TGI is above 243 µM.

On to `O=[N+]([O-])/C=C/c1cccc(F)c1`, for which the concentration for total growth inhibition (TGI) in [1] worked out at 72.5 µM; in assay [2], 27.4 µM; in [3] it was 13.2 µM; in [4] it was 16.4 µM; in assay [5] it was 21.6 µM; in assay [11], 29.9 µM. The TGI was 26.9 µM in assay [6], 14 µM in assay [8], 28.1 µM in [9] and 7.45 µM in assay [10].

As for `C=C(/C=C/C=C(/CCC=C(C)C)COC(C)=O)[C@@H]1CC[C@]2([C@H](CCCO)/C(=C(/C)C=O)CC[C@]2(C)O)[C@@H]1O`, the concentration for total growth inhibition (TGI) worked out at 30.7 µM in [4]; 33 µM in [11]; 32.6 µM in assay [6]; 34.9 µM in assay [7]; 42.2 µM in [10].

Regarding `C[n+]1ccccc1/C=C/c1ccc2c(c1)OCO2`, the TGI in [1], in [2], in assay [3], in assay [4], in [5] and in [11] was above 10 µM throughout. The TGI in assay [6], in [7], in assay [8] and in assay [10] was above 10 µM each time.

Regarding `NC(=O)c1nnc2cc(F)c(F)cc2c1N`, the TGI in [1] is above 100 µM; in assay [2], above 100 µM; in [3], above 100 µM; in assay [4] it was 69.7 µM; in assay [5], above 100 µM; in [11], 38.5 µM. The TGI in assay [6] was 56.8 µM; in assay [7] it was above 100 µM; in assay [8], above 100 µM; in assay [9], 31.8 µM; in assay [10], above 100 µM.

For `COc1cc2c(cc1OC)C(C1(O)CCCCC1)NCC2` (stereo not given), the TGI in [4], in assay [11], in assay [7], in [9] and in assay [10] was above 100 µM throughout.

Take `CC1(C)[C@@H]2C[C@H]1C(Cc1ccccc1C[C@H]1c3cc(-c4ccccn4)ncc3[C@H]3C[C@@H]1C3(C)C)c1cc(-c3ccccn3)ncc12` (stereo not given in full): the TGI is 3.6 µM in assay [1]; 4.89 µM in assay [2]; above 42.2 µM in assay [3]; above 28.8 µM in [4]; above 37.9 µM in assay [5]; above 90.3 µM in [11]. The TGI in assay [6] is above 22 µM; in assay [7], 1.23 µM; in assay [8], above 100 µM; in assay [9], above 100 µM; in assay [10], above 100 µM.

With `Nc1nc(Cl)cc(NCCCCO)n1`, the total growth inhibition concentration (TGI) in [2], in assay [4], in [11], in assay [7], in assay [9] and in [10] was above 100 µM each time.

For `CCCNCC(O)/C=C/[Si](C)(C)C` (stereo not given) (tested in a mixture with another compound), the TGI in [2], in assay [4], in [11], in [6], in assay [9] and in assay [10] was above 100 µM throughout.

Consider `Cc1ccccc1N=Nc1ccc(N=Nc2c(O)ccc3cc(S(=O)(=O)O)cc(S(=O)(=O)O)c23)c(C)c1`, for which the TGI in assay [3], in assay [4], in assay [11], in assay [6], in [7] and in assay [9] was above 100 µM each time. In assay [10], the concentration for total growth inhibition (TGI) is above 100 µM.

As to `Cc1nnc2sc(-c3ccc(N)cc3)nn12`, the TGI in [1], in assay [3], in assay [5], in assay [11], in assay [6] and in [7] was above 100 µM in each case. In addition, the TGI in assay [9] is 95.7 µM; in assay [10] it was above 100 µM.

Regarding `Cc1c(Cl)c(S(N)(=O)=O)cc(S(N)(=O)=O)c1NC(=O)c1ccc(Cl)cc1`, the TGI in [1], in assay [2], in assay [3], in assay [4], in [5] and in [6] was above 100 µM in each case. Besides, the TGI in assay [7], in [8] and in assay [9] was above 100 µM in each case.
